Measured values published in patent US6750008B1, “Methods and compositions for inhibition of membrane fusion-associated events, including HIV transmission” (priority 1999, dated 2004).
Entries after “also recorded” stand apart in the source; their conditions may differ.

Tests used:
[1] = molecular target: viral gp41 of HIV-1 (on virions and HIV-1 infected cells) (HIV-1) (UniProt P03377); experiment: cell-based or functional assay
HIV-1LAI virus [2] = experiment: Cell fusion assay (HIV-1 induced syncytia formation); assay type: cell-based
Source text: The results of several such experiments are presented herein.

HIV-1LAI virus [3] = details: FIG. 1 legend
Method: Synthetic peptides were incubated at 37° C. with either 247 TCID50 (for experiment depicted in FIG. 2), or 62 TCID50 (for experiment depicted in FIG. 3) units of HIV-1LAI virus or 25 TCID50 units of HIV-2NIHZ and CEM CD4^+ cells at peptide concentrations of 0, 0.04, 0.4, 4.0, and 40 μg/ml for 7 days. The resulting reverse transcriptase (RT) activity in counts per minute was determined using the assay described, below, in Section 6.1.5. See Reed, L. J. et al., 1938, Am. J. Hyg. 27: 493-497 for an explanation of TCID50 calculations.
The micro-reverse transcriptase (RT) assay was adapted from Goff et al. (Goff, S. et al., 1981, J. Virol. 38:239-248) and Willey et al. (Willey, R. et al., 1988, J. Virol. 62:139-147). Supernatants from virus/cell cultures are adjusted to 1% Triton-X100. A 10 μl sample of supernatant was added to 50 μl of RT cocktail in a 96-well U-bottom microtitre plate and the samples incubated at 37° C. for 90 min. The RT cocktail contained 75 mM KCl, 2 mM dithiothreitol, 5 mM MgCl2, 5 μg/ml poly A (Pharmacia, cat. No. 27-4110-01), 0.25 units/ml oligo dT (Pharmacia, cat. No. 27-7858-01), 0.05% NP40, 50 mM Tris-HCl, pH 7.8, 0.5 μM non-radioactive dTTP, and 10 μCi/ml ^32P-dTTP (Amersham, cat. No. PB.10167).
After the incubation period, 40 μl of reaction mixture was applied to a Schleicher and Schuell (S+S) NA45 membrane (or DE81 paper) saturated in 2×SSC buffer (0.3M NaCl and 0.003M sodium citrate) held in a S+S Minifold over one sheet of GB003 (S+S) filter paper, with partial vacuum applied. Each well of the minifold was washed four times with 200 μl 2×SSC, under full vacuum. The membrane was removed from the minifold and washed 2 more times in a pyrex dish with an excess of 2×SSC. Finally, the membrane was drained on absorbent paper, placed on Whatman #3 paper, covered with Saran wrap, and exposed to film overnight at −70° C.
DP178 (SEQ ID:1) was next tested for its ability to block CD-4^+ CEM cell infection by cell free HIV-1 virus. […]

CEM cells = experiment: Cell proliferation and toxicity assay; assay type: cell-based; details: 3 days, highest concentration tested 40 μg/ml
Method: Cell proliferation and toxicity assay: Approximately 3.8×10^5 CEM cells for each peptide concentration were incubated for 3 days at 37° C. in T25 flasks. Peptides tested were DP178 (SEQ ID:1) and DP-116 (SEQ ID:9), as described in FIG. 1. Peptides were synthesized as described, above, in Section 6.1. The concentrations of each peptide used were 0, 2.5, 10, and 40 μg/ml. Cell counts were taken at incubation times of 0, 24, 48, and 72 hours.

[4] = molecular target: T1, DP107-like domain of the RSV F1 protein (Human respiratory syncytial virus A, UniProt P03420); assay type: binding
T1 construct: made in house
T1 sequence (P03420 142-302): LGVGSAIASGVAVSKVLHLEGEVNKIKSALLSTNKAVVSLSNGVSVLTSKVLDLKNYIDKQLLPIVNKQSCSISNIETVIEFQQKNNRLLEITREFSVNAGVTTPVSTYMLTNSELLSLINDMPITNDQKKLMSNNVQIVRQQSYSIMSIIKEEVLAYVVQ
Method: After incubation and washing, unbound Fab-d is removed from the plates and bound Fab-d is quantitated. A no-inhibitor control should also be conducted.
Such an assay takes advantages of accepted radioligand and receptor binding principles.
Specifically, the DNA sequence corresponding amino acid residues 142-302 of the RSV F1 protein was amplified by PCR and cloned into the Xmn I site of the expression vector pMal-p2 (New England Biolab) to give MF5.1. These amino acid residues correspond to the extracellular domain of the RSV F1 protein including its DP107 region but excluding the DP178 region.
Cell fusion assays were performed with each of the peptides as described in Section 17 above. The binding affinity of each peptide was also measured in a competitive binding assay described in Section 5.6.1 above, wherein the concentration of each peptide necessary to bind to the M5.1 fusion protein (i.e., the B50 value), and thereby disrupt binding of biotin labeled T112 (T888) to the fusion protein, was measured.

RSV = experiment: Anti-RSV antiviral activity assay (syncytial formation, Hep-2 cells); assay type: cell-based, respiratory syncytial virus; details: purified peptides
Method: The assay utilized herein tested the ability of the peptides to disrupt the ability of HEp2 cells acutely infected with RSV (i.e., cells which are infected with a multiplicity of infection of greater than 2) to fuse and cause syncytial formation on a monolayer of uninfected an uninfected line of Hep-2 cells. The lower the observed level of fusion, the greater the antiviral activity of the peptide was determined to be. […]
After incubation, cells in control wells were checked for fusion centers, media was removed from the wells, followed by addition, to each well, of either Crystal Violet stain or XTT. […] The number of syncytia per well were then counted, using a dissecting microscope.
With respect to XTT (2,3-bis[2-Methoxy-4-nitro-5-sulfophenyl]-2H-tetrazolium-5-carboxyanilide inner salt), 50 μl XTT (1 mg/ml in RPMI buffered with 100 mM HEPES, pH 7.2-7.4, plus 5% DMSO) were added to each well. The OD450/690 was measured (after blanking against growth medium without cells or reagents, and against reagents) according to standard procedures. […]

M41-PΔ178 (from UniProt P03377 540-642)
Cell fusion (IC90) [1]: > 50000 nM | HIV infectivity (IC90) [1]: > 8000 nM

M41 (maltose binding fusion protein of the gp41 ectodomain) (from UniProt P0AEX9 27-392; P03377 540-686)
Cell fusion (IC90) [1]: > 50000 nM | HIV infectivity (IC90) [1]: > 16000 nM

H-YTNTIYTLLEESQNQQEKNEQELLELDKWASLWNWF-OH [DP-185]
block of HIV-1-mediated syncytia formation (HIV-1LAI virus [2]): block HIV-1-mediated syncytia formation | inhibitory activity on HIV-1-induced syncytia formation, lowest concentration tested (HIV-1LAI virus [2]; FIG. 4): ≤ 312.5 ng/mL

Ac-LQARILAVERYLKDQQQ-NH2 [DP-116, reference compound]
inhibition of HIV-1 cell free virus infection (HIV-1LAI virus [3]): negative for inhibition of HIV-1 infection

enfuvirtide
cytotoxic effects on cells in culture (CEM cells): non-cytotoxic; also recorded: no cytotoxic effects

Ac-VYPSDEFDASISQVNEKINQALAYIRKADELLHNV-NH2 [T786]
binding affinity relative to T112 [4]: approximately ten-fold less | Kd ([4]; B50, competition with biotin labeled T112 (T888), read-out: binding affinity): 19 nM

DP-180: control peptide incorporating the amino acid residues of DP178 in a scrambled sequence (NNLLRAIEAQQHLLQLTVW; Core polypeptide) [reference compound]
anti-fusogenic activity (HIV-1LAI virus [2]; at 40 μg/ml): no evidence of anti-fusogenic activity

M41-P (from UniProt P03377 540-686)
Cell fusion (IC90) [1]: 83 nM | HIV infectivity (IC90) [1]: 66 nM

CC[C@H](C)[C@H](NC(=O)[C@H](Cc1ccccc1)NC(=O)[C@H](C)NC(=O)[C@H](CC(C)C)NC(=O)[C@H](CO)NC(=O)[C@H](CCC(N)=O)NC(=O)[C@H](CC(N)=O)NC(=O)[C@@H](NC(=O)[C@H](CCCCN)NC(=O)[C@H](CCC(=O)O)NC(=O)[C@H](CC(N)=O)NC(=O)[C@@H](NC(=O)[C@H](CCC(N)=O)NC(=O)[C@H](CO)NC(=O)[C@@H](NC(=O)[C@H](CO)NC(=O)[C@H](C)NC(=O)[C@H](CC(=O)O)NC(=O)[C@H](Cc1ccccc1)NC(=O)[C@H](CCC(=O)O)NC(=O)[C@H](CC(=O)O)NC(=O)[C@H](CO)NC(=O)[C@@H]1CCCN1C(=O)[C@H](Cc1ccccc1)NC(=O)[C@@H](NC(C)=O)C(C)C)[C@@H](C)CC)C(C)C)[C@@H](C)CC)C(=O)N[C@@H](CCCNC(=N)N)C(=O)N[C@@H](CCCCN)C(=O)N[C@@H](CO)C(=O)N[C@@H](CC(=O)O)C(=O)N[C@@H](CCC(=O)O)C(=O)N[C@@H](CC(C)C)C(=O)N[C@@H](CC(C)C)C(=O)N[C@@H](Cc1c[nH]cn1)C(=O)N[C@@H](CC(N)=O)C(=O)N[C@H](C(N)=O)C(C)C [T112]
anti-RSV antiviral activity (RSV): substantial antiviral activity
